In patent US20250320496A1, “MODULATION OF ABCB11 GENE TRANSCRIPTION USING ANTISENSE OLIGONUCLEOTIDES TARGETING REGULATORY RNAS” (CAMP4 Therapeutics Corporation, priority 2022, published 2025):
Strand notation (5' to 3'): a small letter for the sugar, then the base; units joined by * are phosphorothioate-linked, units joined directly phosphodiester-linked; [ ] holds rarer units or linkages, { } end groups; capitals alone tell only the bases. e = 2'-O-(2-methoxyethyl) (MOE); l = locked nucleic acid (LNA); [5mC] = 5-methylcytosine; d = 2'-deoxy (DNA)

Test system: human ABCB11 mRNA
Assay: ASO treatment of primary human hepatocytes (PHH), ABCB11 mRNA by RT-qPCR normalized to B2M
Format: cell-based
Conditions: primary human hepatocytes; for ABCB11 FC mRNA (5 μM ASO vs. untreated): 5 μM ASO with PO-modifications, normalized to untreated hepatocytes; for ABCB11 mRNA FC (5 μM ASO vs. UNT): normalized to untreated PHHs (UNT)
In short: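 Plated primary human hepatocytes were treated 4 h post-thaw with ASO (e.g., 1.25–10 μM; initial screen 5 μM) in medium containing 0.3 mg/ml Matrigel for 72 hrs. Total RNA was reverse-transcribed and ABCB11 mRNA measured by Taqman RT-qPCR, normalized to B2M, with fold change versus untreated PHHs.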

| Substance | ABCB11 FC mRNA (5 μM ASO vs. untreated) [fold change] | ABCB11 mRNA FC (5 μM ASO vs. UNT) [fold change] |
| --- | --- | --- |
| CO-11220 (antisense eG*eT*lGeG*lAeG*l[5mC]eA*lAeA*l[5mC]eT*lAeG*lGe[5mC]*lAe[5mC]*eT*eG) | 2.22 |  |
| CO-4481 (antisense e[5mC]*eA*eT*e[5mC]*eT*e[5mC]*eT*eG*eT*eG*eA*eA*eT*e[5mC]*eG*e[5mC]*eT*eA*eG*eT) |  | 1.18 |
| CO-4041 (antisense eT*e[5mC]*e[5mC]*eA*eA*eG*eG*e[5mC]*e[5mC]*eT*eG*eT*eT*eG*eA*e[5mC]*eA*e[5mC]*e[5mC]*e[5mC]) |  | 0.963 |
| CO-4491 (antisense eG*eA*eG*eG*eT*eT*eG*eA*e[5mC]*eA*eA*eA*eT*eA*eG*eG*eT*eG*eT*eG) |  | 1.101 |
| CO-7101 (eA*eT*e[5mC]*eT*eG*lG*dA*dA*lA*dA*dT*dA*dA*lT*dG*d[5mC]*l[5mC]*eT*eT*eT*e[5mC]*eT; antisense) |  | 1.165 |
| CO-4502 (antisense eA*eA*eA*eT*eGeT*eT*eG*eG*e[5mC]*e[5mC]e[5mC]*eT*eT*eG*eA*eG*eG*eA*eG) |  | 1.142 |
| CO-6996 (antisense eG*eT*eG*lA*eG*dG*d[5mC]*lA*dT*d[5mC]*dA*lG*dG*dT*dA*lA*eG*eT*eT*e[5mC]) |  | 1.314 |
| CO-11218 (antisense eG*eTlG*eG*lAeG*l[5mC]*eAlA*eA*l[5mC]eT*lA*eGlG*e[5mC]*lAe[5mC]*eT*eG) | 2.86 |  |
| CO-4026 (antisense e[5mC]*eT*eT*eG*eT*e[5mC]*e[5mC]*eA*eG*eT*eG*eT*eA*eA*eA*e[5mC]*eA*eA*e[5mC]*eG) |  | 1.234 |
| CO-4485 (antisense eG*eT*e[5mC]*eA*eA*eG*eA*eT*e[5mC]*e[5mC]*e[5mC]*e[5mC]*eG*eA*eA*eG*eT*eT*eG*eA) |  | 1.194 |
| CO-6974 (antisense eT*eG*eG*eG*eA*eA*eG*eT*eT*eT*eA*eA*eA*eA*eA*eA*eT*eG*eG*eG) |  | 1.394 |
| CO-4029 (antisense eA*eT*eA*e[5mC]*eT*eT*eG*eT*e[5mC]*eT*e[5mC]*eT*eG*e[5mC]eA*eA*eA*eT*e[5mC]*e[5mC]) |  | 0.908 |
| CO-7009 (antisense eT*eG*eT*eG*eG*eA*eT*dG*dT*dA*dGdA*dT*dG*dA*dA*dT*eG*eG*e[5mC]*eA*eA*eG*eG) |  | 1.289 |
| CO-6672 (antisense eA*eG*eG*eA*e[5mC]*eA*e[5mC]*eA*eA*eT*eT*eT*e[5mC]*eT*eG*eT*eA*eG*eT*eT) |  | 1.391 |
| CO-7034 (antisense eT*eT*eA*eG*eA*eG*eA*e[5mC]*eA*eA*eA*eG*eA*eA*eT*e[5mC]*eG*e[5mC]*eT*eG) |  | 1.097 |
| CO-12747 (antisense eG*eT*eGeAeGeGe[5mC]*eA*eT*e[5mC]*eA*eG*eG*eTeAeAeGeT*eT*e[5mC]) | 0.97 |  |
| CO-11231 (antisense eG*eT*lGeG*eA*lGe[5mC]*eA*lAeA*e[5mC]*lTeA*eG*lGe[5mC]*eA*l[5mC]eT*eG) | 1.85 |  |
| CO-7102 (eT*eA*eT*e[5mC]*eT*eG*eG*dA*dA*dA*dA*dT*dA*dA*dT*dG*d[5mC]*e[5mC]*eT*eT*eT*e[5mC]*eT*eA; antisense) |  | 1.068 |
| CO-4031 (antisense eG*eG*e[5mC]*eT*eT*e[5mC]*e[5mC]*eT*e[5mC]*eA*eA*eA*eT*eT*e[5mC]*eA*eT*eA*eT*eT) |  | 1.427 |
| CO-12753 (antisense eG*eTeG*eA*eGeG*e[5mC]*eAeT*e[5mC]*eAeG*eG*eTeA*eA*eGeT*eT*e[5mC]) | 1.03 |  |
| CO-4505 (antisense eG*eA*eG*e[5mC]*eA*e[5mC]*eA*e[5mC]*eA*eT*eT*e[5mC]*eA*e[5mC]*eT*e[5mC]*e[5mC]*eA*eT*eT) |  | 1.011 |
